This is an account of results in US20260317324A1, “BIFUNCTIONAL COMPOUNDS FOR DEGRADING BRAF VIA UBIQUITIN PROTEOSOME PATHWAY” (Nurix Therapeutics, Inc., priority 2023, published 2026).

This assay addresses T1, BRAF V600E (Homo sapiens, UniProt P15056, V600E).
T1 construct: endogenous C-terminal HiBiT fusion tag on BRAF V600E allele; endogenous in cells; host or cells: A375 clone 1F10 (CRISPR-Cas9 knock-in of the HiBiT tag; parental A375 from ATCC)
The assay can be described thus: BRAF HiBiT degradation assay, C-terminal HiBiT-tagged BRAF V600E A375 cells (clone 1F10), Nano-Glo HiBiT Lytic assay. It counts as cell-based. The following applies: for Dmax: A-375. A digest of the protocol:
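A375 cells (clone 1F10, endogenous C-terminal HiBiT on BRAF V600E) were seeded at 10,000 cells/well, grown 24 h, then dosed in duplicate with an 11-point series from 1 μM to 0.01 nM (0.2% DMSO). Nano-Glo HiBiT lytic luminescence was normalised to DMSO and wildtype-A375 background; DC50 was read at 50% protein remaining, alongside observed Dmax.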
(HiBiT is a short tag that completes a luciferase, so light tracks the accessible tagged protein.)

Setting [1] is: A375 (BRAF V600E), DC50 at 50%: fitted conc. at Y=50.
Setting [2] is: A375 (BRAF V600E), percentage protein degraded at maximal compound effect relative to DMSO.
The mark [3] stands for this setting: A375 (BRAF V600E, Class 1), DC50 at 50% degradation.
Setting [4] is: A375 (BRAF V600E, Class 1), observed Dmax, % protein degraded relative to DMSO control.

Where only a bound is given, the exact number is not on record here.

T1 sequence (P15056 whole entry V600E, the tested form may be a part): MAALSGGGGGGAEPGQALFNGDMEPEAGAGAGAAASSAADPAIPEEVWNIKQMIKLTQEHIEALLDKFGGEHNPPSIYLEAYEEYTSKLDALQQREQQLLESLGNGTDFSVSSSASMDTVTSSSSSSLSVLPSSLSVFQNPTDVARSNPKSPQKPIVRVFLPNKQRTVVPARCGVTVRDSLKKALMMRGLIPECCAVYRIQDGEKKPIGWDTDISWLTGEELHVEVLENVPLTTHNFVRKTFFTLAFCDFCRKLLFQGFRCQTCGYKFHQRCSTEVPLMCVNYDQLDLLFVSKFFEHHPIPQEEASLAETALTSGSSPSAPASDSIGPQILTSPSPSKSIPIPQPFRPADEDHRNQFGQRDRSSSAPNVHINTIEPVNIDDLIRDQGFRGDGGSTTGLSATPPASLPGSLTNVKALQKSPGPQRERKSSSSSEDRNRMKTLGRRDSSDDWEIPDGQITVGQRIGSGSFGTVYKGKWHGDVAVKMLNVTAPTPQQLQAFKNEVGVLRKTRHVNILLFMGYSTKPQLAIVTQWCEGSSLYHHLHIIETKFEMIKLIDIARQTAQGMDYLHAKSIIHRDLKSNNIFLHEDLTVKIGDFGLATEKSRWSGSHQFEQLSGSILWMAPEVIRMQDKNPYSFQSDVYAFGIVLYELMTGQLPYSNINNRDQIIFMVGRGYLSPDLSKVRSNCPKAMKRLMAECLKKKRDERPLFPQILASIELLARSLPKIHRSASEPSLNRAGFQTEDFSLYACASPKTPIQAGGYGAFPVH

Broadly, the DC50 is the concentration at which degradation of the target reaches its halfway point. Read a low DC50 as degradation at low concentration. The term Dmax denotes the greatest extent of degradation seen. High values mean a fuller loss of target, low ones a partial loss of target. In turn, `CCCS(=O)(=O)Nc1cccc(-c2nc(C3CCN(C(=O)CN4CCN(c5ccc6c(c5)C(=O)N(C5CCC(=O)NC5=O)C6=O)CC4)CC3)sc2-c2ccnc(N)n2)c1F` (racemic) [Compound 233, Rac-N-{3-[5-(2-aminopyrimidin-4-yl)-2-{1-[2-(4-{2-[(3R)-2,6-dioxopiperidin-3-yl]-1,3-dioxo-2,3-dihydro-1H-isoindol-5-yl}piperazin-1-yl)acetyl]piperidin-4-yl}-1,3-thiazol-4-yl]-2-fluorophenyl}propane-1-sulfonamide] showed a 50% degradation concentration (DC50) under setting [1] of 10 to 50 nM. The compound also displayed a maximal degradation (Dmax) under setting [2] of 30 to 70%.
For `CCCS(=O)(=O)Nc1cccc(-c2nc(C(C)(C)C)sc2-c2ccnc(Nc3cccc(C4CCN(CC5(C)CCN(c6ccc(C7CCC(=O)NC7=O)cn6)CC5)CC4)c3)n2)c1F` (racemic) [Compound 73, Rac-N-[3-(2-tert-butyl-5-{2-[(3-{1-[(1-{5-[(3R)-2,6-dioxopiperidin-3-yl]pyridin-2-yl}-4-methylpiperidin-4-yl)methyl]piperidin-4-yl}phenyl)amino]pyrimidin-4-yl}-1,3-thiazol-4-yl)-2-fluorophenyl]propane-1-sulfonamide], in that order: 50 to 500 nM and 30 to 70%.
For `CCCS(=O)(=O)Nc1cccc(-c2nc(C3CCC4(CC3)CCN(CC3CCN(c5ccc(C6CCC(=O)NC6=O)cc5)CC3)CC4)sc2-c2ccnc(N)n2)c1F` (racemic) [Compound 256, Rac-N-{3-[5-(2-aminopyrimidin-4-yl)-2-{3-[(1-{4-[(3R)-2,6-dioxopiperidin-3-yl]phenyl}piperidin-4-yl)methyl]-3-azaspiro[5.5]undecan-9-yl}-1,3-thiazol-4-yl]-2-fluorophenyl}propane-1-sulfonamide], the half-maximal degradation concentration (DC50) under setting [3] fell in the range of 50 to 500 nM. Further, the greatest degradation seen (Dmax) under setting [4] was 30 to 70%.
`CCCS(=O)(=O)Nc1cccc(-c2nc(C3CCN(C4CN(C(=O)CC5(O)CCN(c6ccc(NC7CCC(=O)NC7=O)cc6F)CC5)C4)CC3)sc2-c2ccnc(N)n2)c1F` (racemic) [Compound 214, Rac-N-{3-[5-(2-aminopyrimidin-4-yl)-2-[1-(1-{2-[1-(4-{[(3R)-2,6-dioxopiperidin-3-yl]amino}-2-fluorophenyl)-4-hydroxypiperidin-4-yl]acetyl}azetidin-3-yl)piperidin-4-yl]-1,3-thiazol-4-yl]-2-fluorophenyl}propane-1-sulfonamide] had a DC50 under setting [1] of 10 to 50 nM. For the same compound, the maximal degradation (Dmax) under setting [2] fell in the range of 30 to 70%.
The corresponding values for `CCCS(=O)(=O)Nc1cccc(-c2nc(C(C)(C)C)sc2-c2ccnc(NC3CC4(CCN(C(=O)CN5CCN(c6ccc7c(c6)C(=O)N(C6CCC(=O)NC6=O)C7=O)CC5)CC4)C3)n2)c1F` (racemic) [Compound 132, Rac-N-(3-{2-tert-butyl-5-[2-({7-[2-(4-{2-[(3R)-2,6-dioxopiperidin-3-yl]-1,3-dioxo-2,3-dihydro-1H-isoindol-5-yl}piperazin-1-yl)acetyl]-7-azaspiro[3.5]nonan-2-yl}amino)pyrimidin-4-yl]-1,3-thiazol-4-yl}-2-fluorophenyl)propane-1-sulfonamide] are 10 to 50 nM and 30 to 70%.
For `CCCS(=O)(=O)Nc1cccc(-c2nc(C(C)(C)C)sc2-c2ccnc(Nc3ccc(C4CCN(CC5CCN(c6ccc([C@@H]7CCC(=O)NC7=O)cc6)CC5)CC4)cc3)n2)c1F` [Compound 90, N-[3-(2-tert-butyl-5-{2-[(4-{1-[(1-{4-[(3S)-2,6-dioxopiperidin-3-yl]phenyl}piperidin-4-yl)methyl]piperidin-4-yl}phenyl)amino]pyrimidin-4-yl}-1,3-thiazol-4-yl)-2-fluorophenyl]propane-1-sulfonamide], in that order: 10 to 50 nM and 30 to 70%.
The corresponding values for `CCCS(=O)(=O)Nc1cccc(-c2nc(-c3ccc(C4CCN(C(=O)CC5CCN(c6ccc(NC7CCC(=O)NC7=O)cc6)CC5)CC4)cc3)sc2-c2ccnc(N)n2)c1F` (racemic) [Compound 185, Rac-N-{3-[5-(2-aminopyrimidin-4-yl)-2-[4-(1-{2-[1-(4-{[(3R)-2,6-dioxopiperidin-3-yl]amino}phenyl)piperidin-4-yl]acetyl}piperidin-4-yl)phenyl]-1,3-thiazol-4-yl]-2-fluorophenyl}propane-1-sulfonamide] are 10 to 50 nM and 30 to 70%.
As for `CCCS(=O)(=O)Nc1cccc(-c2nc(C3CCN(C(=O)C4CCN(C(=O)CC5CCN(c6ccc(NC7CCC(=O)NC7=O)cc6)CC5)CC4)CC3)sc2-c2ccncn2)c1F` (racemic) [Compound 184, Rac-N-(3-{2-[1-(1-{2-[1-(4-{[(3R)-2,6-dioxopiperidin-3-yl]amino}phenyl)piperidin-4-yl]acetyl}piperidine-4-carbonyl)piperidin-4-yl]-5-(pyrimidin-4-yl)-1,3-thiazol-4-yl}-2-fluorophenyl)propane-1-sulfonamide], the DC50 under setting [1] is under 10 nM. Under setting [2], this compound registered a Dmax of over 70%.
For `CCN(C)S(=O)(=O)Nc1cccc(-c2nc(C(C)(C)C)sc2-c2ccnc(Nc3ccc(N4CCN(C(=O)[C@H]5CC[C@H](CN6CCc7ccc(C8CCC(=O)NC8=O)cc7C6)CC5)CC4)cn3)n2)c1F` (mixture of isomers) [Compound 124, Rac-(3S)-3-(2-{[(1r,4r)-4-{4-[6-({4-[2-tert-butyl-4-(3-{[ethyl(methyl)sulfamoyl]amino}-2-fluorophenyl)-1,3-thiazol-5-yl]pyrimidin-2-yl}amino)pyridin-3-yl]piperazine-1-carbonyl}cyclohexyl]methyl}-1,2,3,4-tetrahydroisoquinolin-7-yl)piperidine-2,6-dione], in that order: 50 to 500 nM and 30 to 70%.
Under setting [3], `O=C1CC[C@H](c2ccc(N3CCC(CN4CCN(c5ccc(-n6cc(-c7cc(F)cc(NS(=O)(=O)N8CCCC8)c7F)c(-c7ccncc7)n6)c(F)c5)CC4)CC3)cc2)C(=O)N1` [Compound 340, N-{3-[1-(4-{4-[(1-{4-[(3R)-2,6-dioxopiperidin-3-yl]phenyl}piperidin-4-yl)methyl]piperazin-1-yl}-2-fluorophenyl)-3-(pyridin-4-yl)-1H-pyrazol-4-yl]-2,5-difluorophenyl}pyrrolidine-1-sulfonamide] displayed a half-maximal degradation concentration (DC50) of under 10 nM. For the same compound, under setting [4], the Dmax was over 70%.
The compound `CCCS(=O)(=O)Nc1cccc(-c2nc(C(C)(C)C)sc2-c2ccnc(N[C@H]3CC[C@H](CN4CCN(CC5CCN(c6ccc([C@@H]7CCC(=O)NC7=O)cc6)CC5)CC4)CC3)n2)c1F` [Compound 139, N-{3-[2-tert-butyl-5-(2-{[(1r,4r)-4-({4-[(1-{4-[(3S)-2,6-dioxopiperidin-3-yl]phenyl}piperidin-4-yl)methyl]piperazin-1-yl}methyl)cyclohexyl]amino}pyrimidin-4-yl)-1,3-thiazol-4-yl]-2-fluorophenyl}propane-1-sulfonamide] yielded a 50% degradation concentration (DC50) under setting [1] of 10 to 50 nM. Besides, the maximal degradation (Dmax) under setting [2] was 30 to 70%.
The corresponding values for `CCCS(=O)(=O)Nc1cccc(-c2nc(C(C)(C)C3CCN(C(=O)CN4CCC5(CC4)CN(c4ccc6c(c4)C(=O)N(C4CCC(=O)NC4=O)C6=O)C5)CC3)sc2-c2ccnc(N)n2)c1F` (racemic) [Compound 240, Rac-N-{3-[5-(2-aminopyrimidin-4-yl)-2-(2-{1-[2-(2-{2-[(3R)-2,6-dioxopiperidin-3-yl]-1,3-dioxo-2,3-dihydro-1H-isoindol-5-yl}-2,7-diazaspiro[3.5]nonan-7-yl)acetyl]piperidin-4-yl}propan-2-yl)-1,3-thiazol-4-yl]-2-fluorophenyl}propane-1-sulfonamide] are over 500 nM and 30 to 70%.
Take `CCCS(=O)(=O)Nc1cccc(-c2cn(-c3ccc(OC4CCN(C(=O)C5CCN(c6ccc(C7CCC(=O)NC7=O)cn6)CC5)CC4)cc3)nc2-c2ccncc2)c1F` (racemic) [Compound 5, Rac-N-{3-[1-(4-{[1-(1-{5-[(3R)-2,6-dioxopiperidin-3-yl]pyridin-2-yl}piperidine-4-carbonyl)piperidin-4-yl]oxy}phenyl)-3-(pyridin-4-yl)-1H-pyrazol-4-yl]-2-fluorophenyl}propane-1-sulfonamide]: the DC50 under setting [1] is 50 to 500 nM. For the same compound, the Dmax under setting [2] is 30 to 70%.
For `CCCS(=O)(=O)Nc1cccc(-c2nc(C(C)(C)C)sc2-c2ccnc(NC3CC4(C3)CN(CC3CCN(C(=O)C5CCN(c6ccc(C7CCC(=O)NC7=O)cc6)CC5)CC3)C4)n2)c1F` (racemic) [Compound 140, Rac-N-[3-(2-tert-butyl-5-{2-[(2-{[1-(1-{4-[(3R)-2,6-dioxopiperidin-3-yl]phenyl}piperidine-4-carbonyl)piperidin-4-yl]methyl}-2-azaspiro[3.3]heptan-6-yl)amino]pyrimidin-4-yl}-1,3-thiazol-4-yl)-2-fluorophenyl]propane-1-sulfonamide], in that order: 10 to 50 nM and over 70%.
The corresponding values for `CCCS(=O)(=O)Nc1cccc(-c2nc(C)sc2-c2ccnc(Nc3ccc(C4CCN(CC5CCN(c6ccc([C@H]7CCC(=O)NC7=O)cc6)CC5)CC4)cc3)n2)c1F` [Compound 63, N-[3-(5-{2-[(4-{1-[(1-{4-[(3R)-2,6-dioxopiperidin-3-yl]phenyl}piperidin-4-yl)methyl]piperidin-4-yl}phenyl)amino]pyrimidin-4-yl}-2-methyl-1,3-thiazol-4-yl)-2-fluorophenyl]propane-1-sulfonamide] are under 10 nM and over 70%.
